Consider 1 compound from article PMC5915154, “Aloe-emodin as drug candidate for cancer therapy” (Oncotarget, 2018).

SMILES strings stand for the structures.

The subject of assay [1] is mRNA expression (DUSP6, HHEX, MCMDC2, CRCP) in CCRF-CEM cells. The assay can be described thus: Microarray-based mRNA expression profiling. Format: cell-based, human. The note with it: CCRF-CEM treated with IC50 for 48 h vs DMSO; FC: fold change. The protocol: We performed microarray hybridizations to find clues on the possible mechanisms of action of Aloe-emodin. CCRF-CEM cells were treated with the IC50 of Aloe-emodin or DMSO for 48 h. Using Chipster software, 1712 genes were deregulated upon Aloe-emodin treatment in comparison with DMSO treatment as control. These genes were subsequently subjected to Ingenuity Pathway Analysis (IPA) to obtain profiles of possibly affected signaling pathways. The most pronounced molecular and cellular functions identified by IPA were: cell death and survival, cellular growth and proliferation, cellular development, gene expression, cellular function and maintenance (Figure 4A).
Total RNA was isolated by InviTrap Spin Universal RNA Mini kit (Stratec Molecular, Berlin, Germany) according to the manufacturer’s instructions. The quality control of total RNA, probe labeling, hybridization, scanning and data analysis was performed in the Genomics and Proteomics Core Facility at the German Cancer Research Center (DKFZ, Heidelberg, Germany). Details have been previously described. The Chipster software was used to filter the set of differentially expressed genes obtained from microarray hybridization (http://chipster.csc.fi/) with a p value lower than 0.05. These filtered genes with fold-changes of more than 1-fold were selected for Ingenuity Pathways Analysis Software (http://www.ingenuity.com/ Ingenuity Systems, Redwood City, CA, USA) to obtain profiles of genetic networks and signaling pathways. The protocol has been recently reported by us.

Assay [2] relates to CCRF-CEM cells. Nature of the assay: Protease viability marker assay (GF-AFC). Format: cell-based. The note with it: Homo sapiens, 72 h. The protocol:
The protease viability marker assay was performed to exclude the possibility that the cytotoxicity of Aloe-emodin measured by the resazurin assay was artificially influenced by any non-intended interaction with Aloe-emodin-induced ROS generation. The assay measures the protease activity within living cells. The protease activity is restricted to intact viable cells and is measured using a flourogenic, cell permeant, peptide substrate (glyxyl-phenylalanyl-aminoflourocoumarin; GF-AFC). The substrate enters intact cells, where it is cleaved by proteases to generate a fluorescent signal proportional to the number of living cells. Briefly, CCRF-CEM cells (2×10^4cells/well) were seeded in 96 well plate. Aloe-emodin was added in a dose dependent manner (0.001 – 100 μM). After 72 h, 100 μL of GF-AFC substrate (Promega, Madison, USA) were added to each well, cells were incubated for 30 min at 37°C. Using Infinite M2000Pro™ plate reader (Tecan, Crailsheim, Germany), the fluorescent intensity was measured at an excitation wavelength 400 nm, and emitted light was collected at 505 nm.

The test system of assay [3] is MDA-MB-231-pcDNA breast cancer cells. Nature of the assay: Resazurin reduction assay, MDA-MB-231-pcDNA. Type of assay: cell-based. Conditions: Homo sapiens, 72 h. An excerpt: (§1) The cell lines used in the present work, their origins and maintenance conditions were previously reported. In brief, drug-sensitive CCRF-CEM and multidrug resistant P-glycoprotein-over-expressing CEM/ADR5000 leukemia cells, MDA-MB-231-pcDNA3 breast cancer cells and their transfectant subline MDA-MB-231-BCRP clone 23, HCT116 (p53^+/+) colon cancer cells and its knockout clone HCT116 (p53^-/-), U87.MG glioblastoma multiform cells and their transfectant subline U87.MGΔEGFR as well as HEK293 human embryonic kidney cells transfected with or without a cDNA for ABCB5 were used. The human peripheral mononuclear cells (PMNC) were isolated from fresh blood samples of a healthy donor by using Histopaque® (Sigma-Aldrich, Taufkirchen, Germany).
(§2) Resazurin reduction assay was conducted to test the cytotoxicity of the compounds. This assay is based on the reduction of resazurin to resorufin by viable cells. […] Briefly, aliquots of 0.5×10^4 adherent cells which were allowed to attach overnight and 1×10^4 suspension cells per well were seeded in 96-well-plates with or without the addition of varying concentrations of the test substance to get a total volume of 200 μL/well. After 72 h incubation and addition of resazurin (Sigma-Aldrich) for 4 h, staining was measured by an Infinite M2000 ProTM plate reader (Tecan, Germany) using an excitation wavelength of 544 nm and an emission wavelength of 590 nm. […]
In general terms: The colour change of resazurin is a common sign of viable cells or microbes.

In assay [4] the test system is drug-sensitive wild-type cell lines. The assay can be described thus: Resazurin reduction assay, range over drug-sensitive wild-type cell lines. Format: cell-based. Conditions: Homo sapiens.
Description: as §1, §2

Assay [5] concerns CCRF-CEM cells. The assay can be described thus: Mitochondrial membrane potential (JC-1, flow cytometry). Conditions: CCRF-CEM, 2- and 4-fold IC50, 24 and 48 h. Format: cell-based, human. The text has this:
The JC-1 Mitochondrial Membrane Potential Assay Kit (Cayman Chemical, Ann Arbor, MI, USA) was applied for the detection of MMP by flow cytometry according to the manufacturer’s instructions. The cationic dye, 5, 5’, 6, 6’- tetrachloro- 1, 1’, 3, 3’- tetraethylbenzimidazolylcarbocyanine iodide (JC-1) enters the mitochondria and changes its fluorescent properties based on the aggregation of the probe. In healthy cells having high MMP, JC-1 forms complexes known as J-aggregates with intense red fluorescence. On the other hand, in cells with low MMP, JC-1 remains in its monomeric form showing green fluorescence. […] A LSR-Fortessa FACS analyzer (Becton–Dickinson) was used to detect the J-aggregate form of JC-1 with an excitation wavelength of 535 ± 20 nm and an emission wavelength of 590 ± 20 nm as well as the monomeric form of JC-1 at excitation and emission wavelengths of 485 and 535 nm, respectively. The results were analyzed by the FlowJo software (Celeza, Olten, Switzerland). 2×10^4 cells were counted for each experiment which were repeated in triplicate.
(In flow cytometry, cells or beads pass a laser one at a time.)

For orientation: IC50 means the concentration at which inhibition is half-maximal. Read a high IC50 as a need for much substance. Turning to `O=C1c2cccc(O)c2C(=O)c2c(O)cc(CO)cc21` [Aloe-emodin], in assay [1], the “Microarray data (FC), CRCP” value is -2.219 FC; the “Microarray data (FC), DUSP6” value stood at 2.403 FC; the “Microarray data (FC), HHEX” value amounted to 2.321 FC; the “Microarray data (FC), MCMDC2” value is listed as -2.227 FC. Besides, in the assay with CCRF-CEM cells [2], the midpoint of inhibition, the IC50, lay at 13.8 µM. In addition, it took 22.3 µM to reach half-maximal inhibition in assay [3] (IC50). Moreover, the IC50 in assay [4] (drug-sensitive wild-type cell lines HCT116(p53+/+), U87.MG, MDA-MB-231-pcDNA, HEK293) lay in the range of 16.5 to 22.3 µM. For the same compound, the 50% inhibitory concentration (IC50) in assay [4] (drug-sensitive wild-type cell lines incl. CCRF-CEM (abstract)) lay within 9.87 to 22.3 µM. Besides, in the assay on CCRF-CEM cells [5], the “MMP depolarization (JC-1 fluorescence)” value is reported as “shift from red to green fluorescence”.
